ChEMBL document CHEMBL5113518, “Discovery of a Novel G-Quadruplex and Histone Deacetylase (HDAC) Dual-Targeting Agent for the Treatment of Triple-Negative Breast Cancer” (J Med Chem, 2022)
Activity calls are given as the source filed them. No cut-off for these calls is given here.

Key:
[1] = molecular target: T1, Protein deacetylase HDAC6 (Homo sapiens, UniProt Q9UBN7); test: Inhibition of full length recombinant N-terminal GST-tagged human HDAC6 expressed in baculovirus infected Sf9 insect cells incubated for 50 mins by Glo- luminescence assay
T1 sequence (Q9UBN7 whole entry): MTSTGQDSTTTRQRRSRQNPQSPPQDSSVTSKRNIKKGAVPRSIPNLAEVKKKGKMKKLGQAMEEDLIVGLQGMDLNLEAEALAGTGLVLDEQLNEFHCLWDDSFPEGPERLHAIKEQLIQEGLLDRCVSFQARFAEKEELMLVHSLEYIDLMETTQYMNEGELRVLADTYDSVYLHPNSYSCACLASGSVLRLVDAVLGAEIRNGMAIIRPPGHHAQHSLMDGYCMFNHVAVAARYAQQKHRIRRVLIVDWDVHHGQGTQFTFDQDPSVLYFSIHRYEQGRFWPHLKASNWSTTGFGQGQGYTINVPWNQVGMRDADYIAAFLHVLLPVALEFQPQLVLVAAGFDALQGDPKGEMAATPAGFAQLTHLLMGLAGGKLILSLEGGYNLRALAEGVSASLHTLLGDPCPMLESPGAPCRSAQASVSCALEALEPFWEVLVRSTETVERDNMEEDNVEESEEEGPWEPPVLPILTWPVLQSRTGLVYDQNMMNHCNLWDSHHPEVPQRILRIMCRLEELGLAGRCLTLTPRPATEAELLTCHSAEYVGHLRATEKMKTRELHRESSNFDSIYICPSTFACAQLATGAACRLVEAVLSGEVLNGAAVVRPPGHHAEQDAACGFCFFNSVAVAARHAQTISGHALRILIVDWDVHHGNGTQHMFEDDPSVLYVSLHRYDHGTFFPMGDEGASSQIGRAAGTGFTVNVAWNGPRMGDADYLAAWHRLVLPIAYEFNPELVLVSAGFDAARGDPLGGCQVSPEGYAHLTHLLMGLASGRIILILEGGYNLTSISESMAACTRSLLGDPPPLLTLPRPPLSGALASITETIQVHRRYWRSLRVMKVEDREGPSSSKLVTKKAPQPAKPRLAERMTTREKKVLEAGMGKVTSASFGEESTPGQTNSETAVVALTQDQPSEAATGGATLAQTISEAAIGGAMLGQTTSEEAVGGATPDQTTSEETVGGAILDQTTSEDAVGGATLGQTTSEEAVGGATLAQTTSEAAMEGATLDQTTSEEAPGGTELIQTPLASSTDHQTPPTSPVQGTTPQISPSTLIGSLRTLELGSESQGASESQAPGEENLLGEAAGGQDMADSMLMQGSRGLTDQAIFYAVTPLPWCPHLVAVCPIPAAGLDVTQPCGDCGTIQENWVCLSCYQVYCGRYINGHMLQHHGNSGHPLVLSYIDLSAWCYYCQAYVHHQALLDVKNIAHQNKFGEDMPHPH

MDA-MB-231 [2] = test: Effect on metabolism in human MDA-MB-231 cells assessed as oxygen consumption rate at 2.5 uM measured after 48 hrs by seahorse XF24 analysis; format: functional, cell-based
MDA-MB-231 [3] = test: Stabilization of DNA Pu22 (unknown origin ) in human MDA-MB-231 cells assessed as G4-quadruplex formation by measuring fold change at 2.5 uM incubated for 6 hrs by immunofluorescence based confocal laser scanning microscopic analysis; format: cell-based
[4] = Elimination half life in Sprague-Dawley rat at 2 mg/kg, iv measured up to 24 hrs by LC-MS/MS analysis; format: ADME, organism-based; details: in vivo, read-out: beta t1/2 (converted)
Quadruplex DNA [5] = test: Binding affinity to 5' FAM-labeled c-myc G4-quadruplex DNA Pu22 (unknown origin) by fluorescence quench assay; format: nucleic-acid assay
[6] = molecular target: Histone deacetylase (Homo sapiens) (UniProt Q13547+O15379+Q9UBN7+Q92769+Q9UQL6+Q8WUI4+Q9BY41+Q96DB2+P56524+Q9UKV0+Q969S8); test: Inhibition of HDAC in human BT-549 cells assessed as increase in acetylated alpha-tubulin level at 1.25 to 5 uM by Western blot analysis; format: cell-based; details: dose 1.25-5 µM
MDA-MB-468 = test: Cytotoxicity against human MDA-MB-468 cells harboring wild type BRCA1 and BRCA2 mutant reduction in assessed as cell viability; format: functional, cell-based
Quadruplex DNA [7] = test: Binding affinity to 5' FAM-labeled c-myc G4-quadruplex DNA HTG21 (unknown origin) assessed as dissociation constant by surface plasmon resonance assay; format: nucleic-acid assay
MDA-MB-231 [8] = test: Stabilization of DNA Pu22 (unknown origin ) in human MDA-MB-231 cells assessed as G4-quadruplex formation by measuring fold change at 1.25 to 5 uM incubated for 48 hrs by immunofluorescence based confocal laser scanning microscopic analysis; format: cell-based; details: dose 1.25-5 µM
BT-549 = test: Inhibition of colony formation in human BT-549 cells measured for 7 days by crystal violet staining based assay; format: functional, cell-based; details: dose 2.5 µM, time 7.0 day, DDE = dose-dependent effect
MDA-MB-231 [9] = test: Antitumor activity against human MDA-MB-231 cells xenografted in BALB/c-nu/nu mouse assessed as increment ratio at 2.5 mg/kg, ip measured for 31 days; format: functional; details: time 31 day
SUM-159-PT = test: Induction of DNA damage in human SUM159PT at 1.25 to 5 uM assessed as increase in gamma-H2AX level and measured for 48 hrs by DAPI staining method; format: functional, cell-based; details: dose 1.25-5 µM

- IC50 [1]: 650 nM
- half-life [4]: 7.4 h
- DC50 (Quadruplex DNA [5]): 400 nM
- inhibition [6]: Active
- Kd (Quadruplex DNA [7]): > 10000 nM
SMILES: CN(C)CCCNC(=O)c1ccc(/C=C2\CCn3c2nc2cc(N4CCN(CCCCCCCC(=O)NO)CC4)c(F)cc2c3=O)cc1.Cl
- Activity (MDA-MB-231 [2]): Active
- Activity (MDA-MB-231 [3]): Active
- IC50 (MDA-MB-468): 3300 nM
- fold change (FC) (MDA-MB-231 [8]): 8
- inhibition (BT-549): Dde
- T/C (MDA-MB-231 [9]): 36.2%
- Activity (SUM-159-PT): Active
